Data published in the CheMixHub ionic liquid set.

Assay: xn = mol fraction of the nth substance listed

CCCCCC[n+]1ccn(C)c1.F[B-](F)(F)F + CCCC[n+]1ccn(C)c1.F[B-](F)(F)F
101 kPa
Conditions | viscosity [mPa·s]
298.15 K, x2 = 0.103 | 195.1
298.15 K, x2 = 0.8917 | 115.3
299.15 K, x2 = 0.103 | 184.2
299.15 K, x2 = 0.809 | 115.7
301.15 K, x2 = 0.809 | 104.4
301.15 K, x2 = 0.8917 | 98.6
302.15 K, x2 = 0.3602 | 132.9
302.15 K, x2 = 0.555 | 115.9
302.15 K, x2 = 0.8917 | 93.9
303.15 K, x2 = 0.3602 | 126.2
303.15 K, x2 = 0.555 | 110
303.15 K, x2 = 0.809 | 94.5
303.15 K, x2 = 0.8917 | 89.3
304.15 K, x2 = 0.103 | 139.2
304.15 K, x2 = 0.5047 | 110
305.15 K, x2 = 0.3602 | 113.5
305.15 K, x2 = 0.4383 | 107.7
305.15 K, x2 = 0.598 | 98.5
305.15 K, x2 = 0.809 | 85.6
307.15 K, x2 = 0.054 | 123.9
308.15 K, x2 = 0.103 | 113
308.15 K, x2 = 0.3602 | 97.3
308.15 K, x2 = 0.4383 | 92.8

CC(C)C[C@H](N)C(=O)O + CCCC[n+]1ccn(C)c1.F[B-](F)(F)F + O
viscosity [mPa·s], 100 kPa
Conditions | 293.15 K | 298.15 K | 303.15 K | 308.15 K | 313.15 K | 318.15 K
x1 = 0.0002738, x2 = 0 | 1.013 | 0.9 | 0.807 | 0.729 | 0.663 | 0.605
x1 = 0.0002786, x2 = 0.0003728 | 1.044 | 0.93 | 0.848 | 0.763 | 0.705 | 0.65
x1 = 0.0002797, x2 = 0.0007255 | 1.076 | 0.964 | 0.881 | 0.802 | 0.749 | 0.694
x1 = 0.0002864, x2 = 0.001099 | 1.109 | 0.998 | 0.919 | 0.845 | 0.794 | 0.74
x1 = 0.0004577, x2 = 0.0007254 | 1.081 | 0.97 | 0.887 | 0.808 | 0.754 | 0.698
x1 = 0.0004593, x2 = 0 | 1.017 | 0.905 | 0.811 | 0.733 | 0.667 | 0.608
x1 = 0.0004597, x2 = 0.001099 | 1.115 | 1.004 | 0.925 | 0.85 | 0.8 | 0.746
x1 = 0.0004649, x2 = 0.0003727 | 1.049 | 0.935 | 0.852 | 0.768 | 0.709 | 0.654
x1 = 0.0006294, x2 = 0.0003726 | 1.054 | 0.94 | 0.857 | 0.772 | 0.714 | 0.659
x1 = 0.0006321, x2 = 0 | 1.022 | 0.909 | 0.815 | 0.736 | 0.67 | 0.612
x1 = 0.0006374, x2 = 0.0007252 | 1.086 | 0.975 | 0.892 | 0.812 | 0.759 | 0.704
x1 = 0.0006474, x2 = 0.001099 | 1.121 | 1.01 | 0.931 | 0.856 | 0.805 | 0.751
x1 = 0.0008066, x2 = 0 | 1.026 | 0.913 | 0.819 | 0.74 | 0.674 | 0.616
x1 = 0.0008173, x2 = 0.0003726 | 1.059 | 0.945 | 0.862 | 0.777 | 0.718 | 0.663
x1 = 0.0008279, x2 = 0.0007251 | 1.092 | 0.98 | 0.897 | 0.817 | 0.764 | 0.708
x1 = 0.0008314, x2 = 0.001099 | 1.127 | 1.016 | 0.936 | 0.861 | 0.81 | 0.756
x1 = 0.0009955, x2 = 0 | 1.031 | 0.917 | 0.823 | 0.744 | 0.678 | 0.619
x1 = 0.001003, x2 = 0.0003725 | 1.064 | 0.949 | 0.866 | 0.781 | 0.722 | 0.667
x1 = 0.001004, x2 = 0.000725 | 1.097 | 0.985 | 0.902 | 0.822 | 0.768 | 0.712
x1 = 0.00101, x2 = 0.001099 | 1.132 | 1.021 | 0.941 | 0.866 | 0.815 | 0.761
x1 = 0.001168, x2 = 0 | 1.035 | 0.921 | 0.826 | 0.747 | 0.681 | 0.622
x1 = 0.001172, x2 = 0.0007248 | 1.102 | 0.99 | 0.906 | 0.826 | 0.772 | 0.716
x1 = 0.001177, x2 = 0.0003724 | 1.069 | 0.954 | 0.871 | 0.785 | 0.726 | 0.671
x1 = 0.001183, x2 = 0.001099 | 1.138 | 1.026 | 0.946 | 0.871 | 0.82 | 0.766
x1 = 0.00135, x2 = 0.0003724 | 1.074 | 0.959 | 0.875 | 0.789 | 0.73 | 0.675
x1 = 0.001357, x2 = 0 | 1.04 | 0.925 | 0.83 | 0.751 | 0.684 | 0.625
x1 = 0.001369, x2 = 0.001098 | 1.144 | 1.031 | 0.951 | 0.876 | 0.825 | 0.771
x1 = 0.00137, x2 = 0.0007247 | 1.108 | 0.995 | 0.911 | 0.831 | 0.777 | 0.721
x1 = 0.001535, x2 = 0 | 1.044 | 0.929 | 0.834 | 0.755 | 0.688 | 0.629
x1 = 0.001541, x2 = 0.0003723 | 1.08 | 0.963 | 0.88 | 0.794 | 0.734 | 0.679
x1 = 0.001554, x2 = 0.001098 | 1.15 | 1.037 | 0.957 | 0.881 | 0.83 | 0.776
x1 = 0.001557, x2 = 0.0007246 | 1.113 | 0.999 | 0.915 | 0.835 | 0.781 | 0.725
x1 = 0.00172, x2 = 0 | 1.048 | 0.933 | 0.838 | 0.758 | 0.691 | 0.632
x1 = 0.00172, x2 = 0.0003722 | 1.085 | 0.968 | 0.884 | 0.797 | 0.738 | 0.682
x1 = 0.00172, x2 = 0.0007244 | 1.117 | 1.003 | 0.92 | 0.839 | 0.785 | 0.729
x1 = 0.001727, x2 = 0.001098 | 1.156 | 1.042 | 0.962 | 0.886 | 0.835 | 0.781

COCCOCCO + CCCC[n+]1ccn(C)c1.F[P-](F)(F)(F)(F)F
100 kPa
Conditions | viscosity [mPa·s]
283.15 K, x2 = 0.05331 | 7.5
283.15 K, x2 = 0.09804 | 9.72
283.15 K, x2 = 0.19 | 15.75
283.15 K, x2 = 0.2921 | 25.91
283.15 K, x2 = 0.384 | 39.17
283.15 K, x2 = 0.4556 | 57.5
283.15 K, x2 = 0.5782 | 97.4
283.15 K, x2 = 0.6754 | 141.2
283.15 K, x2 = 0.7826 | 218.3
283.15 K, x2 = 0.8947 | 394
283.15 K, x2 = 0.9428 | 522
293.15 K, x2 = 0.04991 | 5.319
293.15 K, x2 = 0.09685 | 6.745
293.15 K, x2 = 0.1962 | 10.81
293.15 K, x2 = 0.291 | 16.42
293.15 K, x2 = 0.4 | 25.65
293.15 K, x2 = 0.5144 | 42.34
293.15 K, x2 = 0.5864 | 52.18
293.15 K, x2 = 0.673 | 67.5
293.15 K, x2 = 0.7866 | 103.1
293.15 K, x2 = 0.8943 | 187.6
293.15 K, x2 = 0.945 | 239.3
303.15 K, x2 = 0.05183 | 4.124
303.15 K, x2 = 0.09655 | 5.063
303.15 K, x2 = 0.1884 | 7.095
303.15 K, x2 = 0.2922 | 11.15
303.15 K, x2 = 0.3935 | 16.31
303.15 K, x2 = 0.5055 | 26.04
303.15 K, x2 = 0.5816 | 33.29
303.15 K, x2 = 0.6785 | 45.05
303.15 K, x2 = 0.7725 | 63.3
303.15 K, x2 = 0.9022 | 113.3
303.15 K, x2 = 0.9392 | 142.8
313.15 K, x2 = 0.04989 | 3.16
313.15 K, x2 = 0.09747 | 3.842
313.15 K, x2 = 0.1914 | 5.61
313.15 K, x2 = 0.2888 | 8.03
313.15 K, x2 = 0.3854 | 11.32
313.15 K, x2 = 0.4724 | 15.18
313.15 K, x2 = 0.5945 | 23.13
313.15 K, x2 = 0.6785 | 31.11
313.15 K, x2 = 0.7835 | 46.19
313.15 K, x2 = 0.8966 | 73.1
313.15 K, x2 = 0.9583 | 96.7

C[n+]1ccn(CCC(F)(F)C(F)(F)F)c1.F[P-](F)(F)(F)(F)F + CCCC[n+]1ccn(C)c1.F[P-](F)(F)(F)(F)F
Conditions | viscosity [mPa·s]
338.16 K, 100 kPa, x2 = 0.972 | 40.9

F[B-](F)(F)F.[Li+] + CCCC[n+]1ccn(C)c1.N#C[N-]C#N
electrical conductivity [S/m], 101 kPa
Conditions | x2 = 0.8903 | x2 = 0.9069 | x2 = 0.933 | x2 = 0.9549 | x2 = 0.9799
288.15 K | – | 0.426 | 0.514 | 0.543 | 0.622
298.15 K | 0.595 | 0.679 | 0.8 | 0.842 | 0.972
333.15 K | 1.89 | 2.07 | 2.31 | 2.41 | 2.7

CC(C)(C)O + CCCC[n+]1ccn(C)c1.O=S(=O)([N-]S(=O)(=O)C(F)(F)F)C(F)(F)F
298 K, 101 kPa
Conditions | electrical conductivity [S/m] | viscosity [mPa·s]
x1 = 0.6042 | 0.52 | –
x1 = 0.653 | 0.504 | –
x1 = 0.8516 | – | 9.27
x2 = 0.0182 | – | 4.38

CC(C)=O + CCCC[n+]1ccn(C)c1.O=S(=O)([N-]S(=O)(=O)C(F)(F)F)C(F)(F)F
296.35 K, 100 kPa, frequency 0.01 MHz
Conditions | electrical conductivity [S/m]
x2 = 0.01616 | 1.1
x2 = 0.0257 | 2.71
x2 = 0.0419 | 4.22
x2 = 0.07374 | 5.7
x2 = 0.1478 | 4.72

CCCCCCCCCO + CCCC[n+]1ccn(C)c1.O=S(=O)([N-]S(=O)(=O)C(F)(F)F)C(F)(F)F
Conditions | viscosity [mPa·s]
298 K, 100 kPa, x2 = 0.9008 | 41.28

C[C@@H](O)[C@H](N)C(=O)O + CCCC[n+]1ccn(C)c1.[Br-] + O
viscosity [mPa·s], 101.3 kPa
Conditions | x1 = 0.0003603, x2 = 0 | x1 = 0.0007221, x2 = 0 | x1 = 0.001078, x2 = 0 | x1 = 0.001438, x2 = 0 | x1 = 0.001779, x2 = 0 | x1 = 0.002158, x2 = 0 | x1 = 0.002516, x2 = 0
293.15 K | 1.009 | 1.016 | 1.023 | 1.03 | 1.037 | 1.044 | 1.051
298.15 K | 0.897 | 0.904 | 0.911 | 0.918 | 0.925 | 0.933 | 0.94
303.15 K | 0.804 | 0.811 | 0.818 | 0.825 | 0.833 | 0.84 | 0.847
308.15 K | 0.727 | 0.734 | 0.741 | 0.748 | 0.755 | 0.763 | 0.77
313.15 K | 0.661 | 0.668 | 0.675 | 0.682 | 0.689 | 0.697 | 0.704
